Reference: patent publication US20080199855A1, “Identification And Characterization Of A Subset of Glioblastomas Sensitive To Treatment With Imatinib” (priority 2004, published 2008)

What was measured:
ERK = assay: Compound I-induced change in ERK phosphorylation in GBM cultures (immunoblotting); format: cell-based, human; details: 10 GBM cultures; 1 μM compound I for 1 h; 10% FCS
Procedure: (§1) Glioblastoma cell cultures were confluently plated in 12-well plate wells (Falcon). […] Samples, with normalized protein content, were subjected to SDS-PAGE using 12% gels. Control lysates from un-stimulated and PDGF-BB-stimulated PAE/Rβ cells were loaded on each gel. Samples were electrophoretically transferred to Hydrobond-C-Extra filters (Amersham Life Science). For detection of phosphorylated forms of ERK and Akt, filters were blocked for 1 h in Tris buffered saline pH 7.6 (TBS), 0.137 M NaCl and 0.0035 M Tris-HCl, containing 5% BSA, and incubated over night with 1 μg/ml anti phospho-p44/42 MAPK Thr202/Tyr204 (Cell Signaling Technology) or 1 μg/ml anti phospho-Akt Ser473 (Cell Signaling Technology) in TBS with 0.001% Tween-20 (TTBS). After three 10 min washes in TTBS, the filters were incubated for 1 h with horseradish peroxidase coupled sheep anti-rabbit antibody (Amersham Life Science) diluted 1:25000, and washed three times 10 min in TTBS. The antigens were detected using the Lumi-Light plus western blotting substrate (Roche) according to the manufacturer's instruction with an Intelligent Darkbox II digital scanner (FUJIFILM). […] Values were quantified by using the AIDA software version 3.10.039 (FUJIFILM). The relative expression and phosphorylation of ERK and Akt in the different GBM cultures, was determined by using the reference samples from the PAE/Rβ cells.

Akt = assay: Compound I-induced change in Akt phosphorylation in GBM cultures (immunoblotting); format: cell-based, human; details: 10 GBM cultures; 1 μM compound I for 1 h; 10% FCS
Procedure: as §1

GBM culture 5 = assay: cells; details: Homo sapiens, 96 h, read-out: growth inhibition (% reduction of increase in cell number)
GBM culture 18 = assay: cells; details: Homo sapiens, 96 h, read-out: growth inhibition (% reduction of increase in cell number)
GBM culture 21 = assay: cells; details: Homo sapiens, 96 h, read-out: growth inhibition (% reduction of increase in cell number)
GBM culture 30 = assay: cells; details: Homo sapiens, 96 h, read-out: growth inhibition (% reduction of increase in cell number)
GBM culture 34 = assay: cells; details: Homo sapiens, 96 h, read-out: growth inhibition (% reduction of increase in cell number)
GBM culture 35 = assay: cells; details: Homo sapiens, 96 h, read-out: growth inhibition (% reduction of increase in cell number)
GBM culture 38 = assay: cells; details: Homo sapiens, 96 h, read-out: growth inhibition (% reduction of increase in cell number)
GBM culture 6 = assay: cells; details: Homo sapiens, 96 h, read-out: growth inhibition (% reduction of increase in cell number)
GBM culture 7 = assay: cells; details: Homo sapiens, 96 h, read-out: growth inhibition (% reduction of increase in cell number)
GBM culture 9 = assay: cells; details: Homo sapiens, 96 h, read-out: growth inhibition (% reduction of increase in cell number)
GBM culture 11 = assay: cells; details: Homo sapiens, 96 h, read-out: growth inhibition (% reduction of increase in cell number)
GBM culture 31 = assay: cells; details: Homo sapiens, 96 h, read-out: growth inhibition (% reduction of increase in cell number)
GBM culture 45 = assay: cells; details: Homo sapiens, 96 h, read-out: growth inhibition (% reduction of increase in cell number)
GBM culture 8 = assay: cells; details: Homo sapiens, 96 h, read-out: growth inhibition (% reduction of increase in cell number)
GBM culture 27 = assay: cells; details: Homo sapiens, 96 h, read-out: growth inhibition (% reduction of increase in cell number)
GBM culture 13 = assay: Growth inhibition induced by compound I, GBM culture 13; details: Homo sapiens, 96 h, read-out: growth inhibition (% reduction of increase in cell number)

For `Cc1ccc(NC(=O)c2ccc(CN3CCN(C)CC3)cc2)cc1Nc1nccc(-c2cccnc2)n1` [compound I], the “compound I-induced change in specific phosphorylation of ERK” value (ERK) was “only moderate changes”, the “compound I-induced change in specific phosphorylation of Akt” value (Akt) was “only moderate changes” and the inhibition at 1 µM (GBM culture 5) was under 15%. The inhibition at 1 µM (GBM culture 18) was under 15%, the inhibition at 1 µM (GBM culture 21) was under 15% and the inhibition at 1 µM (GBM culture 30) was under 15%. The inhibition at 1 µM (GBM culture 34) was under 15%, the inhibition at 1 µM (GBM culture 35) was under 15% and the inhibition at 1 µM (GBM culture 38) was under 15%. For the same compound, the inhibition at 1 µM (GBM culture 6) was over 40%, the inhibition at 1 µM (GBM culture 7) was over 40% and the inhibition at 1 µM (GBM culture 9) was over 40%. For the same compound, the inhibition at 1 µM (GBM culture 11) was over 40%, the inhibition at 1 µM (GBM culture 31) was over 40% and the inhibition at 1 µM (GBM culture 45) was over 40%. It also gave an inhibition at 1 µM (GBM culture 8) of 20 to 40%, an inhibition at 1 µM (GBM culture 27) of 20 to 40% and an inhibition at 1 µM (GBM culture 13) of 20 to 40%.
